The assay deals with Mus musculus. Description: Relative topical anti inflammatory activity was measured in mice by comparing with cumulative potency of betamethasone valerate by using croton oil ear assay. Type of assay: functional.

Structures are written as SMILES.

In turn, `CCC(=O)OCC(=O)[C@@]1(OC(=O)CC)[C@@H](C)CC2C3C(C(O)C[C@@]21C)[C@@]1(C)C=CC(=O)C=C1C[C@H]3Br` (some centres not stated) yielded a Potency of 186.

In turn, `CC(=O)OCC(=O)[C@@]1(O)[C@@H](C)CC2C3C(C(O)C[C@@]21C)[C@@]1(C)C=CC(=O)C=C1C[C@H]3Cl` (some centres not stated) came in with a Potency of 81.

In turn, `CCC(=O)OCC(=O)[C@@]1(OC(=O)CC)[C@H](C)CC2C3C(C(O)C[C@@]21C)[C@@]1(C)C=CC(=O)C=C1C[C@H]3F` (some centres not stated) had a Potency of 78.

Consider `CC(=O)OCC(=O)[C@@]1(O)[C@H](C)CC2C3C(C(O)C[C@@]21C)[C@@]1(C)C=CC(=O)C=C1C[C@H]3Br` (some centres not stated), for which the Potency is recorded as 20.

As to `CCC(=O)OCC(=O)[C@@]1(OC(=O)CC)[C@@H](C)CC2C3C(C(O)C[C@@]21C)[C@@]1(C)C=CC(=O)C=C1C[C@H]3I` (some centres not stated), the Potency turned out to be 103.

`CC(=O)OCC(=O)[C@@]1(O)[C@@H](C)CC2C3C=CC4=CC(=O)C=C[C@]4(C)C3C(O)C[C@@]21C` (some centres not stated) displayed a Potency of 29.

For the compound `CCC(=O)OCC(=O)[C@@]1(OC(=O)CC)[C@H](C)CC2C3CCC4=CC(=O)C=C[C@]4(C)C3C(O)C[C@@]21C` (some centres not stated), the Potency worked out at 74.

In turn, `CCC(=O)OCC(=O)[C@@]1(OC(=O)CC)[C@H](C)CC2C3C(C(O)C[C@@]21C)[C@@]1(C)C=CC(=O)C=C1C[C@H]3Br` (some centres not stated) gave a Potency of 120.

`CCC(=O)OCC(=O)[C@@]1(OC(=O)CC)[C@@H](C)CC2C3C(C(O)C[C@@]21C)[C@@]1(C)C=CC(=O)C=C1C[C@H]3F` (some centres not stated) gave a Potency of 69.

`CCC(=O)OCC(=O)[C@@]1(OC(=O)CC)[C@H](C)CC2C3C=CC4=CC(=O)C=C[C@]4(C)C3C(O)C[C@@]21C` (some centres not stated): the Potency was 27.

With `CCC(=O)OCC(=O)[C@@]1(OC(=O)CC)[C@@H](C)CC2C3C=CC4=CC(=O)C=C[C@]4(C)C3C(O)C[C@@]21C` (some centres not stated), the Potency is on record as 57.

Turning to `CCC(=O)OCC(=O)[C@@]1(OC(=O)CC)[C@H](C)CC2C3C(C(O)C[C@@]21C)[C@@]1(C)C=CC(=O)C=C1C[C@H]3I` (some centres not stated), the Potency was 36.

`CC(=O)OCC(=O)[C@@]1(O)[C@H](C)CC2C3C=CC4=CC(=O)C=C[C@]4(C)C3C(O)C[C@@]21C` (some centres not stated) gave a Potency of 4.

For `CC(=O)OCC(=O)[C@@]1(O)[C@@H](C)CC2C3C(C(O)C[C@@]21C)[C@@]1(C)C=CC(=O)C=C1C[C@H]3Br` (some centres not stated), the Potency stood at 94.

In the case of `CC(=O)OCC(=O)[C@@]1(O)[C@H](C)CC2C3CCC4=CC(=O)C=C[C@]4(C)C3C(O)C[C@@]21C` (some centres not stated), the Potency is 10.

Turning to `CCC(=O)OCC(=O)[C@@]1(OC(=O)CC)[C@@H](C)CC2C3CCC4=CC(=O)C=C[C@]4(C)C3C(O)C[C@@]21C` (some centres not stated), the Potency worked out at 76.

Turning to `CC(=O)OCC(=O)[C@@]1(O)[C@@H](C)CC2C3C(C(O)C[C@@]21C)[C@@]1(C)C=CC(=O)C=C1C[C@H]3I` (some centres not stated), the Potency was found to be 54.

`CC(=O)OCC(=O)[C@@]1(O)[C@@H](C)CC2C3C(C(O)C[C@@]21C)[C@@]1(C)C=CC(=O)C=C1C[C@H]3F` (some centres not stated) displayed a Potency of 16.

`CC(=O)OCC(=O)[C@@]1(O)[C@@H](C)CC2C3CCC4=CC(=O)C=C[C@]4(C)C3C(O)C[C@@]21C` (some centres not stated) showed a Potency of 26.

`CC(=O)OCC(=O)[C@@]1(O)[C@H](C)CC2C3C(C(O)C[C@@]21C)[C@@]1(C)C=CC(=O)C=C1C[C@H]3Cl` (some centres not stated) returned a Potency of 32.

`CCC(=O)OCC(=O)[C@@]1(OC(=O)CC)[C@@H](C)C[C@H]2[C@@H]3CCC4=CC(=O)C=C[C@]4(C)[C@@]3(F)[C@@H](O)C[C@@]21C` [BETAMETHASONE DIPROPIONATE] gave a Potency of 165.

In the case of `CCCCC(=O)O[C@]1(C(=O)CO)[C@@H](C)C[C@H]2[C@@H]3CCC4=CC(=O)C=C[C@]4(C)[C@@]3(F)[C@@H](O)C[C@@]21C` [BETAMETHASONE VALERATE], the Potency turned out to be 100.
